{"source": "patent US9901553B2", "about": "“Method of modulating the activity of a nucleic acid molecule” (DUKE UNIVERSITY, priority 2007, dated 2018)", "molecules": {"B1": {"name": "VWF aptamer 9.3: Von Willebrand factor aptamer (SEQ ID NO: 5) (nucleic acid)", "chain": "GGGAGGACGAUGCGGAUCGCGCUCUCCUGCUUAAGCAGCUAUCAAAUAGCCCACUCAGACGACUCGCUGAGGAUCCGAGA", "modifications": "listed as RNA, chemistry not given here"}, "B2": {"name": "VWF aptamer 9.14: Von Willebrand factor aptamer (SEQ ID NO: 3) (nucleic acid)", "chain": "GGGAGGACGAUGCGGUGGACGAACUGCCCUCAGCUACUUUCAUGUUGCUGACGCACAGACGACUCGCUGAGGAUCCGAGA", "modifications": "listed as RNA, chemistry not given here"}}, "key": {"human factor IXa": {"target": "human factor IXa (Homo sapiens, UniProt P00740)", "sequence (P00740 227-461 limits assumed)": "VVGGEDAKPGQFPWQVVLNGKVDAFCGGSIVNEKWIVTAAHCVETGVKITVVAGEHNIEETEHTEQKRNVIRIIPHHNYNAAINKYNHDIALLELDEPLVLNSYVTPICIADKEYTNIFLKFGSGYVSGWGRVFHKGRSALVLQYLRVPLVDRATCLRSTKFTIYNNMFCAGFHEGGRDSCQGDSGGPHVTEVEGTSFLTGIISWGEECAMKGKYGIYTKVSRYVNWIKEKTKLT", "sequence (P00740 47-191 limits assumed)": "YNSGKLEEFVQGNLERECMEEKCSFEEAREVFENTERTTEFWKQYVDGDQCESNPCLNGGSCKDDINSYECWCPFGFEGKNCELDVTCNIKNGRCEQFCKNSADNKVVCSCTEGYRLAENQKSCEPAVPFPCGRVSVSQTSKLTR", "assay": "APTT clotting assay: anticoagulant activity of factor IXa aptamer", "details": "FIG. 5B"}, "human plasma": {"system": "human plasma", "assay": "APTT clotting time with antidote alone (no aptamer)", "type": "biochemical"}, "aptamer 9.3t [1]": {"system": "aptamer 9.3t", "assay": "APTT clotting assay: antidote reversal of factor IXa aptamer in human plasma", "details": "for reversal of factor IXa aptamer (9.3t / Ch-9.3t) anticoagulant activity: antidote 2.5 μg (per 160 μl), human plasma"}, "Aptamer Ch-9.3t": {"system": "Aptamer Ch-9.3t", "assay": "Isothermal titration calorimetry (Example V, Table 3)", "type": "binding", "details": "ITC, 298K, PBS"}, "aptamer 9.3t [2]": {"system": "aptamer 9.3t", "assay": "Isothermal titration calorimetry, two-sites binding model (Table 5)", "details": "for K1: first stage binding; for affinity for aptamer 9.3t (in words): two-site model"}, "[3]": {"details": "in vivo; cited from earlier work"}, "aptamers 9.3t and 11F7T": {"system": "aptamers 9.3t and 11F7T", "assay": "APTT clotting assay: reversal of both aptamers simultaneously", "type": "biochemical, human", "details": "protamine 2.5 μg per 160 μl", "experimental": "All reactions were performed in triplicate."}, "[4]": {"details": "in vivo; cited from earlier work", "remark": "listed apart in the source"}, "aptamer 11F7T": {"system": "aptamer 11F7T", "assay": "APTT clotting assay: antidote reversal of factor Xa aptamer in human plasma", "details": "for reversal of factor Xa aptamer (11F7T) anticoagulant activity: antidote 2.5 μg (per 160 μl), human plasma"}, "[5]": {"system": "Factor IXa aptamer (Ch-9.3t)", "assay": "Swine systemic anticoagulation, ACT: antidote reversal", "type": "in vivo", "details": "protamine 10 mg/kg; for reversal of aptamer anticoagulation (ACT): 30 minutes post aptamer"}, "[6]": {"details": "in vivo; cited from earlier work", "remark": "listed apart in the source"}, "VWF": {"target": "T1, VWF (Homo sapiens, UniProt P04275)", "T1 construct": "from tissue; host or cells: normal human whole blood", "T1 sequence (P04275 23-2813)": "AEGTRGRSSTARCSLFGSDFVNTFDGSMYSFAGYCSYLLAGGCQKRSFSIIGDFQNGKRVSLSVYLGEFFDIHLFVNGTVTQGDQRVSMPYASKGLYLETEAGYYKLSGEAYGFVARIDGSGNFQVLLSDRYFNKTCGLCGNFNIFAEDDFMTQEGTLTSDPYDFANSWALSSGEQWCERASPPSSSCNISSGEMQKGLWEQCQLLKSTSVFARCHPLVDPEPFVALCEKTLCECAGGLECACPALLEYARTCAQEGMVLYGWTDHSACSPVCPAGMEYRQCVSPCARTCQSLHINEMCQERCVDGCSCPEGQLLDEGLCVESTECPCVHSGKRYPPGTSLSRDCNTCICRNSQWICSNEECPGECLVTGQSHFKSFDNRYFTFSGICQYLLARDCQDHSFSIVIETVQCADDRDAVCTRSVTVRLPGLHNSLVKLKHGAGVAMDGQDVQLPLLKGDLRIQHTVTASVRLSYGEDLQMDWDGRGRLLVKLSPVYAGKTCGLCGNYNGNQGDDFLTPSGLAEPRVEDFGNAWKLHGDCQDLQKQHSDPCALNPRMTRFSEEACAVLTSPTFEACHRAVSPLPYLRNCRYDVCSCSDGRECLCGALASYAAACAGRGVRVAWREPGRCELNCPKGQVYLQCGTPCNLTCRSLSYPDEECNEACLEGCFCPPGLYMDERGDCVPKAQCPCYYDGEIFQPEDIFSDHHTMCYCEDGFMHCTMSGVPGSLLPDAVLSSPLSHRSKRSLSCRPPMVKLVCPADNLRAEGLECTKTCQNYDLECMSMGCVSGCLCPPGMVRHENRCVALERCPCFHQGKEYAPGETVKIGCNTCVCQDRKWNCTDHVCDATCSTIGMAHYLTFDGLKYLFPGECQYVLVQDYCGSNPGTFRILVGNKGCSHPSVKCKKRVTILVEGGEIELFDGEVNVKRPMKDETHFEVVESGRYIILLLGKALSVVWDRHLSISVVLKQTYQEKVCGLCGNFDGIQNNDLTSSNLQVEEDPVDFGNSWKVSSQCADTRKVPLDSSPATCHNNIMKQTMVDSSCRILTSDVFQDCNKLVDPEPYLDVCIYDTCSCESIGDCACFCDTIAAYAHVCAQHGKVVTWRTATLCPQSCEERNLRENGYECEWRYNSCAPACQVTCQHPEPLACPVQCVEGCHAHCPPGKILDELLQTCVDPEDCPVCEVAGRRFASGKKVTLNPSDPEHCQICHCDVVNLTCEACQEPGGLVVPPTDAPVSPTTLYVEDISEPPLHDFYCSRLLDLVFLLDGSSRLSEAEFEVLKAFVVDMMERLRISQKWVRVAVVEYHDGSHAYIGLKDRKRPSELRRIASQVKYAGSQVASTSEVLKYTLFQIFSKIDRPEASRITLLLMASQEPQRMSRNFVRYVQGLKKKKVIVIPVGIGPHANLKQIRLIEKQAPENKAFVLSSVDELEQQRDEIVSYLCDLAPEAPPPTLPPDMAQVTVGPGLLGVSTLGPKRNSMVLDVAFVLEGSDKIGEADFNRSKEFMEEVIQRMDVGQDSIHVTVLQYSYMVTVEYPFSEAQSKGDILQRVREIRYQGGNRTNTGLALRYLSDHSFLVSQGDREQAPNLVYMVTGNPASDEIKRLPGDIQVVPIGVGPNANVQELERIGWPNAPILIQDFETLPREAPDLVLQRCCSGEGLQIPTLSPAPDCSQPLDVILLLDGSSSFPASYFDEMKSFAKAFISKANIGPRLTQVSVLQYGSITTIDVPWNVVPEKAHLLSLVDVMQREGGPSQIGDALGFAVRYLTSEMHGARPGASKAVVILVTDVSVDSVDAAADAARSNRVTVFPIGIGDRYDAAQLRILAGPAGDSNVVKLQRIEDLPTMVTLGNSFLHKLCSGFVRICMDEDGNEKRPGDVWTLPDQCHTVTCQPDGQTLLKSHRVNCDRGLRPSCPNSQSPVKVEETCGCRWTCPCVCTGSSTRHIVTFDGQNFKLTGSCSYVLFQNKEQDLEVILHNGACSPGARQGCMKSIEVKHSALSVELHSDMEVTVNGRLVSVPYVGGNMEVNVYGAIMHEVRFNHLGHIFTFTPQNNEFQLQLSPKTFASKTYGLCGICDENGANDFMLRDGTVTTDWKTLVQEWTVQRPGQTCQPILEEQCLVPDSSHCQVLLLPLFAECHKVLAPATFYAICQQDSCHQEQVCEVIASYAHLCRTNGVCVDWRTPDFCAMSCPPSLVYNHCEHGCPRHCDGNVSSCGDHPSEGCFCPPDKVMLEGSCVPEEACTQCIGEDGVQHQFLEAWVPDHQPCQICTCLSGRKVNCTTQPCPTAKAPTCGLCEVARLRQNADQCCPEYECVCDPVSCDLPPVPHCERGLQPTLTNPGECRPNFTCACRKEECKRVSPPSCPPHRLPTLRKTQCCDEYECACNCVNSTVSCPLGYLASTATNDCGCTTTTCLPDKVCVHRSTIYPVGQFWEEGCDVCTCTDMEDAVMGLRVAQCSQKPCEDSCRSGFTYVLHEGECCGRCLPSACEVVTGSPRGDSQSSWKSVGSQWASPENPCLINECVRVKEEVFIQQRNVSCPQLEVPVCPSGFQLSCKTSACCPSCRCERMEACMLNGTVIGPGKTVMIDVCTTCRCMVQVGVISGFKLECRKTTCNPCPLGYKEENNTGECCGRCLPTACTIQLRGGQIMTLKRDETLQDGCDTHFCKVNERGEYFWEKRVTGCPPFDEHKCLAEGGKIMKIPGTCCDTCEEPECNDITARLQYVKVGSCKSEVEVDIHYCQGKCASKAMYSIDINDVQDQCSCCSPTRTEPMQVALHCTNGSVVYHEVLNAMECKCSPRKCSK", "assay": "PFA-100 platelet function assay: antiplatelet activity of VWF aptamers", "type": "cell-based", "details": "whole blood", "experimental": "The Platelet Function Analyzer, PFA-100 (Dade Behring, Deerfield, Ill.), measures platelet function in terms of clot formation time. In this assay, collagen/ADP cartridges were used to activate the platelets. 800 μl of whole blood was mixed with aptamer in platelet binding buffer (40 μl) (150 mM NaCl; 20 mM Hepes pH:7.4; 5 mM KCl; 1 mM MgCl2 and 1 mM CaCl2) and incubated for 5 min at room temperature. Antidote molecule or platelet buffer (40 μl) was than added and incubated for 5 min at room temperature. This mixture was then added to a collagen/ADP cartridge and tested for its closing time (Harrison, Blood Rev. 19:111 (2005)). The maximum closing time of the PFA-100 is 300 seconds. Data is shown as the change in closing time. All reactions were performed in triplicate."}, "[7]": {"details": "9.3t-Bi 150 nM + antidote 2.5 ug/well"}, "[8]": {"details": "protamine 2.5 μg, aptamer 150 nM"}}, "note": "“Also recorded” adds a separate entry of the source. Positions of bridges follow the written chain, without caps; N, C: chain ends. Non-standard residues stand in square brackets, D forms with d. Residues, ends and D or L forms follow the SMILES beside them. [invdT] = inverted (3'-3') thymidine; hArg = N=C(N)NCCCC[C@H](N)C(=O)O; Mpa = O=C(O)CCS"}
{"molecule": "9.3t: factor IXa aptamer, 37 nt 2′fluoropyrimidine modified ssRNA, no carrier (SEQ ID NO: 1) (AUGGGGACUAUACCGCGUAAUGCUGCCUCCCCAUU; 2'-fluoro at CU, RNA at AG, 3' [invdT], backbone not given here)", "values": [{"measurement": "anticoagulant activity (in words)", "setting": "human factor IXa", "value": "potent anticoagulant"}]}
{"molecule": "NCCCNCCCCNCCCN", "note": "[Spermine]", "values": [{"measurement": "APTT clotting time", "setting": "human plasma; antidote 1.3 ug/well", "value": 63.8, "unit": "s"}, {"measurement": "APTT clotting time", "setting": "aptamer 9.3t [1]; 9.3t-Bi 150 nM + antidote 1.3 ug/well", "value": 72.7, "unit": "s"}, {"measurement": "Comments: reversal over antidote range", "setting": "aptamer 9.3t [1]; 9.3t-Bi 150 nM, antidote 1.3 ug/well-10 ug/well", "value": "Did not work b/w 1.3 ug/well-10 ug/well"}, {"measurement": "Binding constant", "setting": "Aptamer Ch-9.3t", "value": 8800, "unit": "M⁻¹"}, {"measurement": "affinity with aptamer 9.3t (in words)", "setting": "Aptamer Ch-9.3t", "value": "No significant binding"}, {"measurement": "K1", "setting": "aptamer 9.3t [2]", "value": "1.63e+06", "unit": "M⁻¹"}, {"measurement": "K2", "setting": "aptamer 9.3t [2]; second stage binding", "value": 126000, "unit": "M⁻¹"}, {"measurement": "affinity for aptamer 9.3t (in words)", "setting": "aptamer 9.3t [2]", "value": "orders of magnitude lower"}]}
{"molecule": "N=C(N)NCCCC[C@@H]1NC(=O)CCSSC[C@@H](C(N)=O)NC(=O)[C@@H]2CCCN2C(=O)[C@H](Cc2c[nH]c3ccccc23)NC(=O)[C@H](CC(=O)O)NC(=O)CNC1=O", "note": "[eptifibatide] ([Mpa][hArg]GDWPC-NH2; disulfide 1-7)", "values": [{"measurement": "time for clearance of the compound", "setting": "[3]", "value": "2 to 4", "unit": "h"}]}
{"molecule": "NCCCCNCCCN", "note": "[spermidine, Spermidine]", "values": [{"measurement": "affinity with aptamer 9.3t (in words)", "setting": "Aptamer Ch-9.3t", "value": "No significant binding"}]}
{"molecule": "Protamine", "values": [{"measurement": "APTT clotting time", "setting": "human plasma; antidote 2.5 ug/well", "value": 24, "unit": "s"}, {"measurement": "duration of simultaneous reversal", "setting": "aptamers 9.3t and 11F7T", "value": "maintained for at least an hour"}, {"measurement": "reversal of both aptamers' activity simultaneously", "setting": "aptamers 9.3t and 11F7T", "value": "reverses"}, {"measurement": "reversal of both aptamers' activity simultaneously", "setting": "aptamers 9.3t and 11F7T; listed as protamine", "value": "reverse the anticoagulant activity of the two aptamers simultaneously"}, {"measurement": "protamine concentration for total reversal relative to that routinely used to reverse heparin's anticoagulant activity", "setting": "aptamer 9.3t [1]; 2.5 μg protamine, both aptamers 9.3t and 11F7T, lower", "value": 2, "unit": "fold"}, {"measurement": "APTT clotting time", "setting": "aptamer 9.3t [1]; [7]", "value": 30.3, "unit": "s"}, {"measurement": "Reversal", "setting": "aptamer 9.3t [1]; [7]", "value": "Yes"}, {"measurement": "reversal of factor IXa aptamer (9.3t / Ch-9.3t) anticoagulant activity", "setting": "aptamer 9.3t [1]; aptamer 150 nM", "value": "reverses"}, {"measurement": "reversal of factor IXa aptamer (9.3t / Ch-9.3t) anticoagulant activity", "setting": "aptamer 9.3t [1]; aptamer 150 nM, listed as protamine", "value": "returned the clotting time to normal; also recorded: totally reverse"}, {"measurement": "duration of reversal in vitro (APTT)", "setting": "aptamer 9.3t [1]; protamine", "value": "at least 60 minutes"}, {"measurement": "duration of reversal", "setting": "aptamer 9.3t [1]; [8]", "value": "maintained for at least an hour"}, {"measurement": "time after protamine addition to return of clotting time to normal", "setting": "aptamer 9.3t [1]; [8]", "value": "≤ 5", "unit": "min"}, {"measurement": "side effects of administration", "setting": "[4]", "value": "associated with several side effects"}, {"measurement": "reversal of factor Xa aptamer (11F7T) anticoagulant activity", "setting": "aptamer 11F7T; aptamer 250 nM", "value": "reverses"}, {"measurement": "reversal of factor Xa aptamer (11F7T) anticoagulant activity", "setting": "aptamer 11F7T; aptamer 250 nM, listed as protamine", "value": "totally reverse"}, {"measurement": "duration of reversal in vitro (APTT)", "setting": "aptamer 11F7T; protamine", "value": "at least 60 minutes"}, {"measurement": "time after protamine administration to total reversal", "setting": "aptamer 11F7T; protamine 2.5 μg, aptamer 250 nM", "value": "≤ 5", "unit": "min"}, {"measurement": "K1", "setting": "aptamer 9.3t [2]", "value": "3.09e+07", "unit": "M⁻¹"}, {"measurement": "affinity for aptamer 9.3t (in words)", "setting": "aptamer 9.3t [2]", "value": "significant and similar affinities"}, {"measurement": "time to return of ACT to baseline / reversal", "setting": "[5]", "value": "within five minutes"}, {"measurement": "reversal of aptamer anticoagulation (ACT)", "setting": "[5]", "value": "reverses"}, {"measurement": "reversal of aptamer anticoagulation (ACT)", "setting": "[5]; listed as protamine", "value": "total reversal; also recorded: complete reversal"}, {"measurement": "duration of reversal", "setting": "[5]; Example IV", "value": "at least one hour"}, {"measurement": "duration of reversal (remainder of the experiment)", "setting": "[5]; Example VI", "value": 60, "unit": "min"}]}
{"molecule": "β-cyclodextrin-containing polycation (imidazole-containing variant) [CDP-Im]", "values": [{"measurement": "safety profile", "setting": "[6]", "value": "favorable safety profile"}]}
{"molecule": "B1", "values": [{"measurement": "inhibition of platelet function", "setting": "VWF", "value": "can inhibit platelet function"}]}
{"molecule": "B2", "values": [{"measurement": "inhibition of platelet function", "setting": "VWF", "value": "can inhibit platelet function"}]}
